Where a SMILES comes first, the peptide text is derived from it. Where no end group is shown, it is not given here. [ ]: non-standard residue; d: D form. The star is where a group is joined. Desaminotyrosyl = O=C(CCc1ccc(O)cc1)*
Tested on: rat pituitary cells
Assay: not given
Assay type: cell-based
Conditions: not given
Method: The biological activity of the novel peptides were compared with that of a synthetic standard of the natural sequence of GRF(1-44)-NH2 (SEQ ID NO: 1-NH2) which was isolated from a human pancreatic tumor of an individual suffering from acromegaly (Salk Institute standard hp-GRF-NH2 (NL-A-10)). The assay for biological activity, which is based on the ability to stimulate production of growth hormone in rat pituitary cells in tissue culture, was performed in the following manner. Pituitaries from 30-40 male Sprague-Dawley rats (175 g) were removed aseptically after decapitation. The anterior lobes were collected, washed 3 times in sterile Hepes buffer (0.025M)(pH 7.35) and dispersed at 37° C. in 20-30 ml Hepes buffer (pH 7.35) containing collagenase (4 mg per ml) and Dispase (Protease grande II, 2 mg per ml). After gentle 80 min. vortexing and trituration by Pasteur pipette, the dispersed cells were separated by centrifugation (150×g, 4 min.) and re-suspended in Hepes buffer containing neuraminidase (4 mg/ml), and […] ethylenediaminetetraacetic acid (EDTA) disodium salt pH 7.35, for 10 min. The cells were washed twice with plating medium and plated on multiwell-plates (1.5×10^5 cells per ml) using the following defined medium: F-12/DMEM/BGJ(6:3:1) (Gibco: 430-1700/430-1600/320-2591) with 2 g BSA/L., 2.38 g Hepes/L.,50 mg Gentamycin/L (Schering Co.). The medium in each well was supplemented either with the novel peptide or natural GRF(1-44)-NH2 (SEQ ID NO: 1-NH2) at concentrations ranging from 3.1 to 200 fmol. per ml. of medium. Control wells contained no supplement. Plating was done with this medium added with 2% fetal calf serum to ensure rapid fixation of the cells. On the fourth day the cells were washed twice with the defined medium without fetal calf serum. Finally […] of defined medium was added to each well plus […] of the same medium containing each individual treatment, in triplicate. After 3 hours of incubation the medium was collected and diluted as required to conduct radioimmunoassay (RIA) for rat growth hormone. RIAs were conducted using Sinha's anti-murine GH immune serum and procedures according to the National Pituitary Agency using protein A to precipitate antibody antigen complex.

| Molecule | Potency of GRF Analogs Relative to GRF(1-44)-NH2 (SEQ ID NO: 1-NH2) |
| --- | --- |
| CC[C@H](C)[C@H](NC(=O)[C@H](C)NC(=O)[C@H](CC(=O)O)NC(=O)[C@@H](C)NC(=O)CCc1ccc(O)cc1)C(=O)N[C@@H](Cc1ccccc1)C(=O)N[C@H](C(=O)N[C@H](C(=O)N[C@@H](CO)C(=O)N[C@@H](Cc1ccc(O)cc1)C(=O)N[C@@H](CCCNC(=N)N)C(=O)N[C@@H](CCCCN)C(=O)N[C@H](C(=O)N[C@@H](CC(C)C)C(=O)N[C@@H](C)C(=O)N[C@@H](CCC(N)=O)C(=O)N[C@@H](CC(C)C)C(=O)N[C@@H](CO)C(=O)N[C@@H](C)C(=O)N[C@@H](CCCNC(=N)N)C(=O)N[C@@H](CCCCN)C(=O)N[C@@H](CC(C)C)C(=O)N[C@@H](CC(C)C)C(=O)N[C@@H](CCC(N)=O)C(=O)N[C@@H](CC(=O)O)C(=O)N[C@H](C(=O)N[C@@H](CCSC)C(=O)N[C@@H](CO)C(=O)N[C@@H](CCCNC(=N)N)C(N)=O)[C@@H](C)CC)C(C)C)[C@@H](C)O)[C@@H](C)O [SEQ ID NO: 8-NH2] (Desaminotyrosyl-[dA]DAIFTTSYRKVLAQLSARKLLQDIMSR-NH2) | 3.77 |
| CC[C@H](C)[C@H](NC(=O)[C@H](C)NC(=O)[C@H](CC(=O)O)NC(=O)[C@@H](C)NC(=O)CCc1ccc(O)cc1)C(=O)N[C@@H](Cc1ccccc1)C(=O)N[C@H](C(=O)N[C@@H](CO)C(=O)N[C@@H](CO)C(=O)N[C@@H](Cc1ccc(O)cc1)C(=O)N[C@@H](CCCNC(=N)N)C(=O)N[C@@H](CCCCN)C(=O)N[C@H](C(=O)N[C@@H](CC(C)C)C(=O)N[C@@H](C)C(=O)N[C@@H](CCC(N)=O)C(=O)N[C@@H](CC(C)C)C(=O)N[C@@H](CO)C(=O)N[C@@H](C)C(=O)N[C@@H](CCCNC(=N)N)C(=O)N[C@@H](CCCCN)C(=O)N[C@@H](CC(C)C)C(=O)N[C@@H](CC(C)C)C(=O)N[C@@H](CCC(N)=O)C(=O)N[C@@H](CC(=O)O)C(=O)N[C@H](C(=O)N[C@@H](CCSC)C(=O)N[C@@H](CO)C(=O)N[C@@H](CCCNC(=N)N)C(N)=O)[C@@H](C)CC)C(C)C)[C@@H](C)O [SEQ ID NO: 9-NH2] (Desaminotyrosyl-[dA]DAIFTSSYRKVLAQLSARKLLQDIMSR-NH2) | 3.55 |
| CC[C@H](C)[C@H](NC(=O)[C@H](C)NC(=O)[C@H](CC(=O)O)NC(=O)[C@H](C)NC(=O)[C@@H](N)Cc1ccc(O)cc1)C(=O)N[C@@H](Cc1ccccc1)C(=O)N[C@H](C(=O)N[C@@H](CC(N)=O)C(=O)N[C@@H](CO)C(=O)N[C@@H](Cc1ccc(O)cc1)C(=O)N[C@@H](CCCNC(=N)N)C(=O)N[C@@H](CCCCN)C(=O)N[C@H](C(=O)N[C@@H](CC(C)C)C(=O)NCC(=O)N[C@@H](CCC(N)=O)C(=O)N[C@@H](CC(C)C)C(=O)N[C@@H](CO)C(=O)N[C@@H](C)C(=O)N[C@@H](CCCNC(=N)N)C(=O)N[C@@H](CCCCN)C(=O)N[C@@H](CC(C)C)C(=O)N[C@@H](CC(C)C)C(=O)N[C@@H](CCC(N)=O)C(=O)N[C@@H](CC(=O)O)C(=O)N[C@H](C(=O)N[C@@H](CCSC)C(=O)N[C@@H](CO)C(=O)N[C@@H](CCCNC(=N)N)C(=O)N[C@@H](CCC(N)=O)C(=O)N[C@@H](CCC(N)=O)C(=O)NCC(=O)N[C@@H](CCC(=O)O)C(=O)N[C@@H](CO)C(=O)N[C@@H](CC(N)=O)C(=O)N[C@@H](CCC(N)=O)C(=O)N[C@@H](CCC(=O)O)C(=O)N[C@@H](CCCNC(=N)N)C(=O)NCC(=O)N[C@@H](C)C(=O)N[C@@H](CCCNC(=N)N)C(=O)N[C@@H](C)C(=O)N[C@@H](CCCNC(=N)N)C(=O)N[C@@H](CC(C)C)C(N)=O)[C@@H](C)CC)C(C)C)[C@@H](C)O [SEQ ID NO: 1-NH2, GRF(1-44)-NH2, reference compound] | 1.00 |
| HADAIFTQSYRKVLAQLSARKLLQDILSRQQG [SEQ ID NO: 23-OH] | 2.96 |
| HVDAIFTQSYRKVLAQLSARKLLQDILNRQQG [SEQ ID NO: 14-OH] | 3.11 |

Tested on: not listed separately
Assay: Half-life stability of GRF analogs in aqueous solution by reverse phase HPLC
Assay type: physicochemical
Conditions: aqueous buffer pH 7.40 (0.25M Na2HPO4/H3PO4, 1.0 mM NaN3), 37° C., 0.15 mg/mL
Method: Half-life stability of GRF analogs in aqueous solution was determined by reverse phase HPLC at 37° C. GRF analogs were prepared as described above. GRF analogs were dissolved in […] of H2 O and then taken up in 1.0 mL of buffer solution (pH 7.40) containing 0.25M Na2 HPO4 /H3 PO4 and 1.0 mM NaN3. The concentration of the GRF analogs was 0.15 mg/mL. The HPLC system was a Laboratory Data Control (LDC) HPLC with a Waters C-18 column (3.9×300 mm, 10μ). The detector was a LDC Spectromonitor III and the gradient delivery system was a Constametric II. Mobile phase--(A) 0.025% TFA in H2 O, (B) 0.025% TFA in acetonitrile. Gradient was 0-37% (B) in 15 minutes for SEQ ID NO: 8-NH2 where Xaa^1 is desNH2 Tyr and Xaa^2 is D-Ala and SEQ ID NO: 9-NH2 where Xaa^1 is desNH2 Tyr and Xaa^2 is D-Ala; 0-35% (B) in 15 minutes for SEQ ID NO: 35-NH2 where Xaa^1 is desNH2 Tyr and Xaa^2 is D-Ala; and 0-36% (B) in 15 minutes for SEQ ID NO: 10-NH2 where Xaa^1 is desNH2 Tyr and Xaa^2 is D-Ala. Flow rate for all gradients was 2 ml/minute. Detection was at 206 nm using a UV detector.

| Molecule | HALF-LIFE t(1/2) [h] |
| --- | --- |
| CC[C@H](C)[C@H](NC(=O)[C@H](C)NC(=O)[C@H](CC(=O)O)NC(=O)[C@@H](C)NC(=O)CCc1ccc(O)cc1)C(=O)N[C@@H](Cc1ccccc1)C(=O)N[C@H](C(=O)N[C@H](C(=O)N[C@@H](CO)C(=O)N[C@@H](Cc1ccc(O)cc1)C(=O)N[C@@H](CCCNC(=N)N)C(=O)N[C@@H](CCCCN)C(=O)N[C@H](C(=O)N[C@@H](CC(C)C)C(=O)N[C@@H](C)C(=O)N[C@@H](CCC(N)=O)C(=O)N[C@@H](CC(C)C)C(=O)N[C@@H](CO)C(=O)N[C@@H](C)C(=O)N[C@@H](CCCNC(=N)N)C(=O)N[C@@H](CCCCN)C(=O)N[C@@H](CC(C)C)C(=O)N[C@@H](CC(C)C)C(=O)N[C@@H](CCC(N)=O)C(=O)N[C@@H](CC(=O)O)C(=O)N[C@H](C(=O)N[C@@H](CCSC)C(=O)N[C@@H](CO)C(=O)N[C@@H](CCCNC(=N)N)C(N)=O)[C@@H](C)CC)C(C)C)[C@@H](C)O)[C@@H](C)O [SEQ ID NO: 8-NH2] (Desaminotyrosyl-[dA]DAIFTTSYRKVLAQLSARKLLQDIMSR-NH2) | 169 |

Reference: patent US5846936A, “Growth hormone releasing factor analogs” (Roche Vitamins Inc., priority 1995, dated 1998)
